This note sets out measurements from US20110250133A1, “GASTRIN […] PEPTIDE COMPOUNDS” (priority 2003, published 2011).

“Also recorded” adds a separate entry of the source.

For experiment [1], the target named is T1, NMB-R (Rattus norvegicus, UniProt P24053).
T1 construct: C6, an NMB-R expressing rodent glioblastoma cell line; host or cells: C6 glioblastoma cells, intact adherent cells
T1 sequence (P24053 1-390): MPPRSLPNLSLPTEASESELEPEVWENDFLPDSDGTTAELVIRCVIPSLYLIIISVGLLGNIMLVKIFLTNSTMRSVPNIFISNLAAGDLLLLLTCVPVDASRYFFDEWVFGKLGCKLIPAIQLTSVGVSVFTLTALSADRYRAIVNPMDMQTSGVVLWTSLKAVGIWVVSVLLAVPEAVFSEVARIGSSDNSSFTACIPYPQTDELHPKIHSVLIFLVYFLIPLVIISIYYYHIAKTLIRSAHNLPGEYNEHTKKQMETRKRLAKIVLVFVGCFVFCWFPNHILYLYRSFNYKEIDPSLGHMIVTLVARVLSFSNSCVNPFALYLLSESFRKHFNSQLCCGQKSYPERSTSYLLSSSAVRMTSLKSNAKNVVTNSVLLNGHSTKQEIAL
Description: Competition with 125I-NMB for NMB-R in C6 cells (linker specificity).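 For all read-outs here: test cells: rodent glioblastoma C6 line carrying NMB-R, human prostate cancer PC3 line carrying GRP-R, affinity fitted by one-site competition nonlinear regression.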 Type of experiment: binding, rodent. The conditions noted are these: for receptor subtype preference (GRP-R vs NMB-R): from IC50 with 125I-NMB (C6) and 125I-BBN (PC3), cut off 10x the IC50 of [Tyr4]-BBN.
Description: Two cell lines, C6, an NMB-R expressing rodent glioblastoma cell line and PC3, a GRP-R expressing human prostate cancer cell line, were used in this assay. The affinity of various unlabeled compounds for each receptor subtype (NMB-R and GRP-R) was determined indirectly by measuring its ability to compete with the binding of ^125I-NMB or ^125I-BBN to its corresponding receptors in C6 and PC3 cells.
Cells for the assays were plated at a concentration of 9.6×10^4/well in 48 well poly-lysine coated plates (Beckton Dickinson Biocoat). PC3 were obtained from ATCC(CRL-1435) and cultured in RPMI 1640 (ATCC) supplemented with 2 mM L-glutamine, 1.5 g/L Sodium bicarbonate, 10 mM HEPES and 10% FBS. […] PC3 cells for the assays were plated at a concentration of 2.0×10^4 cells/well in 96-well white/clear bottom plates (Falcon Optilux-I). Plates were used for the assays on day 2 of the post-plating.
RPMI 1640 (ATCC) containing 25 mM HEPES, 0.2% BSA fraction V, 1.0 mM AEBSF (CAS # 3087-99-7) and 0.1% Bacitracin (CAS # 1405-87-4), pH 7.4. Custom made ^125I-[Tyr^0]NMB, >2.0 Ci/μmole (Amersham Life Science) [^125I-NMB] and commercially available ^125I-[Tyr^4]BBN, >2.0 Ci/μmole (Perkin Elmer Life Science) [^125I-BBN] were used as radioligands.
Using a 48-well plate assay system (for C6 study) competition experiments were performed using ^125I-NMB. […] Selection of compounds for the assay was based on linker subtype.
The binding parameters obtained from the studies were analyzed using a one-site competition non-linear regression analysis with GraphPad Prism. The relative affinity of various compounds for NMB-R in C6 cells were compared with those obtained using commercially available [Tyr^4]-BBN and [Tyr^0]-NMB. To distinguish the GRP-R preferring compounds from NMB-R plus GRP-R preferring compounds, IC50 values obtained for each compound were compared with those obtained from [Tyr^4-BBN with ^125I-NMB on C6 cells.

Experiment [2] concerns T47D human breast cancer cells. Description: Effect of drug treatment on GRP receptor binding (177Lu-AMBA) in T47D cells. The class given is cell-based. The conditions noted are these: for increase in 177Lu-AMBA binding (GRP receptor specific signal per cell): drug 0.1-1.0 μM (gefitinib 0.1-10 μM). The source says:
T-47D breast cancer cells (human metastatic mammary gland ductal adenocarcinoma isolated from pleural effusion, ER+, PR+) were obtained from the American Type Culture Collection.

Experiment [3] concerns PC-3 prostate cancer cells. Description: Effect of drug treatment on GRP receptor binding (177Lu-AMBA) in PC-3 cells. Type of experiment: cell-based, human. The conditions noted are these: for decrease in 177Lu-AMBA binding (GRP receptor specific signal per cell) / increase in 177Lu-AMBA binding (GRP receptor specific signal per cell): relative to untreated control; for decrease in 177Lu-AMBA binding (GRP receptor specific signal per cell): drug 0.1-1.0 μM (gefitinib 0.1-10 μM); for increase in 177Lu-AMBA binding (GRP receptor specific signal per cell): drug 0.1-1.0 μM.
Description: (§1) RPMI 1640 supplemented with 20 mM HEPES, 0.1% BSA (w/v), 0.5 mM PMSF (AEBSF), bacitracin (50 mg/500 ml), pH 7.4.
(§2) Incubations were stopped by the addition of 200 μL of ice-cold binding buffer. Plates were washed three more times with binding buffer, 140 μL of scintillation fluid was added to each well, the plates were sealed and analyzed on a Microβ plate reader (Microbeta Trilux, Perkin-Elmer).
PC-3 (human prostate adenocarcinoma, bone metastasis, AR-, ER) were obtained from the American Type Culture Collection. The growth medium for PC-3 cells is RPMI 1640 (10-041-CM, Mediatech, Inc), supplemented with 10% heat inactivated FBS (Hyclone, SH30070.03) and PSF-1× (as in Example LXVI). The binding buffer, lapatinib solutions, treatment method and cell binding assay is the same as in Example LXVI.

The test system of experiment [4] is BT-474 human breast cancer cells. The experiment can be described thus: Effect of drug treatment on GRP receptor binding (177Lu-AMBA) in BT-474 cells. The class given is cell-based. The conditions noted are these: for change in GRP receptor specific signal per cell (177Lu-AMBA binding): drug 0.1-1.0 μM (gefitinib 0.1-10 μM); for change in 177Lu-AMBA uptake (GRP-R) on a viable cell basis, BT-474: drug 0.1-1.0 μM, ↑ increase, ↓ decrease vs untreated; for decrease in 177Lu-AMBA binding (GRP receptor specific signal per cell): drug 0.1-1.0 μM (4-OH Tamoxifen 0.001-0.1 μM).
Description: BT-474 breast cancer cells (human primary invasive ductal carcinoma; ER+, PR+, amplified HER2/neu+) were obtained from the American Type Culture Collection. The growth medium for BT-474 cells is Hybri-care Medium (Cat No: 46X, ATCC) supplemented with 10% heat inactivated FBS (Hyclone, SH30070.03), 0.2% NaHCO3, and antibiotic/antimycotic “PSF-1×” (GibcoBRL, 15240-062) for a final concentration of penicillin-streptomycin (1×, 100 units/mL), and fungizone (0.25 μg/mL). […] Cells for binding experiments were plated on Day 0 at 5.6×10^4 cells/cm^2 in 96-well white/clear bottom microtiter plates (Falcon Optilux-I), or 96 well black/clear collagen I cellware plates (Beckton Dickinson Biocoat).
as §1, §2
Treatment: BT-474 cells were plated on Day 0 and treated on Days 1 and 2 (DT1, DT2).

The subject of experiment [5] is PC-3 prostate cancer cells. The experiment can be described thus: Effect of dasatinib on GRP receptor binding, proliferation and glucose uptake in PC-3 cells (single plate assay). The conditions noted are these: for % Change in 2-NBDG uptake / % change in 177Lu-AMBA uptake / % Change in Proliferation / 177Lu-AMBA uptake (Bmax fmoles/million cells): PC3 cells; for % Change in Proliferation: N = 4; for 177Lu-AMBA uptake (Bmax fmoles/million cells): control 266 (±23). The class given is cell-based, human. Here is the method:
The cells were plated on Day 0 (7.5 k/well 96-well PE Scintiplate). […] To determine the cell numbers and the proliferation, 100 uL of 10% CCK—F solution in DPBS (Molecular technologies) was added to the same plate, incubated for 30 min at 37° C. and the relative fluorescence (RFU) measured at 535 nm. Base on the cell numbers and the ^177Lu-binding, the Bmax (fmoles bound/million cells) was calculated, and the results compared with the control.
For the glucose uptake study, a fluorescently labeled 2-deoxyglucose derivative (2-NBDG) was used. After the dasatinib treatment as described above, the cells were incubated with 2-NBDG (200 uM) in binding buffer for 2 h at 37° C. and measured RFU at 530 nm. The cell numbers were determined using CCK—F as described above. Based on the cell numbers Bmax for glucose uptake was determined and compared with the control.

Setting [6] is: yes / —, cut off 10x the IC50 of [Tyr4]-BBN with 125I-NMB on C6 cells.
The mark [7] stands for this setting: T-47D, relative to untreated control.
[8] abbreviates: BT-474, relative to untreated control.

With DO3A-monoamide-Nal1-Bpa4-QWAVGHLM-NH2, in experiment [1], the “receptor subtype preference (GRP-R vs NMB-R)” value is “selective affinity towards GRP-R”. Further, the “GRP-R (GRP-R preferring)” value in experiment [1] (setting [6]) was “yes”.

As to “N-[(3β,5β,12α)-3-[[[4,7,10-Tris(carboxymethyl)-1,4,7,10-tetraazacyclododec-1-yl]acetyl]amino]-4-aminobenzoyl-glycyl-L-glutaminyl-L-tryptophyl-L-alanyl-L-valyl-glycyl-L-histidyl-L-leucyl-L-methioninamide [Compound L204]”, the “receptor subtype preference (GRP-R vs NMB-R)” value in experiment [1] is listed as “selective affinity to NMB-R; also recorded: favor the NMB subtype”. In addition, the “receptor preference in words (GRP-R / GRP-R and NMB-R)” value in experiment [1] (wrapped cell: 'No selective preference' or 'preference for NMB-R') is listed as “preference for NMB-R”.

With `C[C@]12CC[C@@H]3c4ccc(O)cc4CC[C@H]3[C@@H]1CC[C@@H]2O` [β2-estradiol], the “change in GRP receptor specific signal per cell (177Lu-AMBA binding)” value (“change … per cell (177Lu-AMBA binding)” below) in experiment [2] (T-47D) was “did not change”; in experiment [3] (PC-3, drug 0.1-1.0 μM (4-OH Tamoxifen 0.001-0.1 μM)), “no change”. Moreover, the “change in 177Lu-AMBA binding (GRP receptor specific signal per cell) vs untreated controls, T47D” value in experiment [2] (Table 25, range 0.001-0.1 μM) was 0%. Also, the “change in 177Lu-AMBA binding (GRP receptor specific signal per cell) vs untreated controls, PC-3” value in experiment [3] (Table 25, range 0.001-0.1 μM) came to 0%. The “increase in 177Lu-AMBA binding (GRP receptor specific signal per cell)” value in experiment [4] (BT-474, relative to untreated control, drug 0.1-1.0 μM (β2-estradiol 1 nM)) came out at 47%. Also, the “change in 177Lu-AMBA binding (GRP receptor specific signal per cell) vs untreated controls, BT-474” value in experiment [4] (Table 25, range 0.001-0.1 μM) came to 47%.

Take imatinib: the “increase in 177Lu-AMBA binding (GRP receptor specific signal per cell)” value in experiment [2] (setting [7]) is given as “up to 15%”. Further, in experiment [3] (PC-3), the “decrease in 177Lu-AMBA binding (GRP receptor specific signal per cell)” value is 15-25%. Also, the “change … per cell (177Lu-AMBA binding)” value in experiment [4] (BT-474) is reported as “no change”. Besides, the “change in 177Lu-AMBA uptake (GRP-R) on a viable cell basis, BT-474” value (“change in 177Lu-AMBA uptake (GRP-R) … BT-474” below) in experiment [4] is recorded as “NC (NC: Little(<10%) or no change in Lu-AMBA uptake)”.

As to sunitinib, the “increase in 177Lu-AMBA binding (GRP receptor specific signal per cell)” value in experiment [2] (setting [7]) is “up to 13%”; in experiment [3] (PC-3), “up to 10%”. For the same molecule, the “decrease in 177Lu-AMBA binding (GRP receptor specific signal per cell)” value in experiment [4] (setting [8]) is reported as “up to 8%”.

On to erlotinib, for which, in experiment [2] (setting [7]), the “increase in 177Lu-AMBA binding (GRP receptor specific signal per cell)” value is reported as 5-20%. For the same molecule, the “decrease in 177Lu-AMBA binding (GRP receptor specific signal per cell)” value in experiment [3] (PC-3) is given as 5-20%. Moreover, the “change … per cell (177Lu-AMBA binding)” value in experiment [4] (BT-474) is reported as “no change”. For the same molecule, the “change in 177Lu-AMBA uptake (GRP-R) … BT-474” value in experiment [4] is listed as “NC (NC: Little(<10%) or no change in Lu-AMBA uptake)”.

As for sorafenib, the “change … per cell (177Lu-AMBA binding)” value in experiment [2] (T-47D) is given as “no change”. The “change in 177Lu-AMBA uptake (GRP-R) on a viable cell basis, T47D” value in experiment [2] (drug 0.1-1.0 μM, ↑ increase, ↓ decrease vs untreated) is “NC (NC: Little(<10%) or no change in Lu-AMBA uptake)”. The results for the “decrease in 177Lu-AMBA binding (GRP receptor specific signal per cell)” value in experiment [3] (PC-3) and in experiment [4] (setting [8]) were 10-20% and 10-25%, respectively.

With DO3A-monoamide-Aoc-QWAVGHL-Nle-NH2, in experiment [1], the “receptor subtype preference (GRP-R vs NMB-R)” value was “dual affinity for both GRP-R and NMB-R”. In experiment [1] (setting [6]), the “GRP-R and NMB-R (binds both)” value is listed as “Yes”.

As for dasatinib, the “increase in 177Lu-AMBA binding (GRP receptor specific signal per cell)” value in experiment [2] (setting [7]) is listed as “up to 500%”. In addition, the “increase in 177Lu-AMBA binding (GRP receptor specific signal per cell)” value in experiment [3] (PC-3) is listed as “up to 250%”. For the same molecule, the “decrease in 177Lu-AMBA binding (GRP receptor specific signal per cell)” value in experiment [4] (setting [8]) was 10-15%. For the same molecule, in experiment [5] (Dasatinib 1 nM), the “% Change in 2-NBDG uptake” value is on record as −4.3 (±4.6) %, the “% change in 177Lu-AMBA uptake” value was 12.3 (±5.8) %, the “% Change in Proliferation” value is given as −4.3 (±1.0) % and the “177Lu-AMBA uptake (Bmax fmoles/million cells)” value is listed as 300 (±40) fmoles/million cells. Besides, in experiment [5] (Dasatinib 10 nM), the “% Change in 2-NBDG uptake” value is −62.9 (±7.1) %, the “% change in 177Lu-AMBA uptake” value is recorded as 45.4 (±8.1) %, the “% Change in Proliferation” value was −11.2 (±5.9) % and the “177Lu-AMBA uptake (Bmax fmoles/million cells)” value is reported as 387 (±46) fmoles/million cells. In experiment [5] (Dasatinib 100 nM), the “% Change in 2-NBDG uptake” value is recorded as −67.8 (±15.8) %, the “% change in 177Lu-AMBA uptake” value is recorded as 76.7 (±5.0) %, the “% Change in Proliferation” value is on record as −33.3 (±11.4) % and the “177Lu-AMBA uptake (Bmax fmoles/million cells)” value was 470 (±51) fmoles/million cells. Also, in experiment [5] (PC-3, 100 nM), the “177Lu-AMBA uptake, average Bmax” value is reported as at most 470 fmoles/million cells; the “decrease of glucose uptake (2-NBDG)” value is recorded as at most 67.8%; the “inhibition of growth (cell proliferation)” value is recorded as at most 33%.

Take DO3A-monoamide-Apa3-QWAVGHLM-NH2: the “receptor subtype preference (GRP-R vs NMB-R)” value in experiment [1] was “dual affinity for both GRP-R and NMB-R”. Besides, the “GRP-R and NMB-R (binds both)” value in experiment [1] (setting [6]) was “yes”.

As to anastrozole, the “decrease in 177Lu-AMBA binding (GRP receptor specific signal per cell)” value in experiment [2] (T-47D, relative to untreated control, drug 0.1-1.0 μM (4-OH Tamoxifen 0.001-0.1 μM)) is “up to 10%”; in experiment [3] (PC-3) it was “up to 10%”. Further, in experiment [4] (BT-474), the “change … per cell (177Lu-AMBA binding)” value is “no change”. The “change in 177Lu-AMBA uptake (GRP-R) … BT-474” value in experiment [4] is listed as “NC (NC: Little(<10%) or no change in Lu-AMBA uptake)”.
